# Assay results published in US6653479B1, “Crystalline form of 6-hydroxy-3-(4-[2-(piperidin-1-yl)ethoxy]phenoxy)-2-(4-methoxyphenyl)benzo[b] thiophene hydrochloride” (Eli Lilly and Company, priority 1999, dated 2003).
# How the values were obtained:
# Format in all cases: physicochemical
# [1] = Stability at different relative humidities (XRD of stored samples); conditions: entire relative humidity range
# Method: XRD patterns were obtained for samples of F-I and F-III stored at different relative humidities (0, 22, 50, and 80%). There is a gradual shifting of the initial (0% RH) F-III peaks at about 13.8, 17.6, 18.0, 20.5 and 24.0° in 2θ as well as slight shifting of less intense peaks, as the relative humidity is increased. These observed changes in the XRD patterns of F-III indicate that the unit cell dimensions are changing, presumably to accommodate weakly held water molecules as the relative humidity is increased.
# A similar experiment was carried out on F-I to determine whether varying the relative humidity would have a similar effect on its lattice (0, 25, 52, 73 and 95% RH). Very slight shifting of the 0% RH peaks at about 7.7, 18.3, 18.5, 20.5, 20.8° in 2θ is observed as the relative humidity is increased. […] The shifting of peaks in the XRD patterns of F-I is less dramatic than the peak shifts observed as F-III was exposed to different relative humidities.
# XRD patterns were obtained on a Siemens D5000 X-ray powder diffractometer, equipped with a CuKα source (λ=1.54056 Å) and a Kevex solid-state detector, operating at 50 kV and 40 mA. Each sample was scanned between 4° and 35° in 2θ. Samples were allowed to equilibrate for at least 30 minutes at the desired temperature and/or relative humidity before data collection.
# [2] = Hygroscopicity (moisture sorption isotherms, VTI method)
# Method: Hygroscopicicity studies were performed on F-I and F-III. Upon initial exposure of the samples to approximately 5% RH, there was an immediate weight gain of 1.5% and 1.7% moisture for F-I and F-III, respectively, equivalent to approximately 0.5 mole of water. Both forms show a continuous sorption of moisture through the entire humidity range, which is likely due to incorporation of water molecules in the lattices.
# The moisture sorption profiles for F-I and F-III reveal that these forms are essentially non-stoichiometric hydrates. At ambient relative humidity (about 50% RH), F-I contains approximately 1.7% water, corresponding to 0.5 moles of water, while F-III has sorbed about 3.0% water which corresponds to about 0.85 moles of water. The bulk forms of F-I and F-III rapidly equilibrate with the atmosphere, so that the water content observed by analytical techniques is a reflection of the relative humidity at the time of data collection. Lot-to-lot differences observed in the DSC data likely results from the samples being hydrated to different extents due to different ambient storage conditions.
# Hygroscopicity measurements were made for F-I and F-III using the VTI method as follows. Each sample was dried under vacuum at 60° C. until no further weight loss was detected, at which time the sample chamber was brought to 0% relative humidity. Moisture sorption isotherms were obtained at 25° C. using a VTI vacuum moisture balance with the following conditions: sample size 10-15 mg, adsorption/desorption range 0-95% relative humidity, step interval 5%, sample interval 10 minutes.
# [3] = Stability at ambient temperature relative to arzoxifene of '474; conditions: relative to the arzoxifene produced by the procedures taught in '474
# [4] = Comparison of aqueous solubility and dissolution rate; conditions: F-I compared with F-III
# [5] = ambient relative humidity (about 50% RH)
structure (smiles),measurement,setting,value
"COc1ccc(-c2sc3cc(O)ccc3c2Oc2ccc(OCCN3CCCCC3)cc2)cc1.Cl [F-I, 6-hydroxy-3-(4-[2-(piperidin-1-yl)ethoxy]phenoxy)-2-(4-methoxyphenyl)benzo[b]thiophene hydrochloride]",stability over relative humidity range,[1],stable over the entire relative humidity range
same,water content,[2]; [5],approximately 1.7%
same,water content in moles of water,[2]; [5],0.5 mol
same,water equivalent of the weight gain,[2]; approximately 5% RH,approximately 0.5 mole
same,immediate weight gain of moisture,"[2]; initial exposure to approximately 5% RH, 25° C.",1.5%
same,stability at ambient temperature,[3],more stable
same,aqueous solubilities,[4],comparable
same,dissolution rates,[4],comparable
